BindingDB's records for doi:10.1021/jm701383e (Merck Serono, 2008)

Each compound was assayed against T1, Prostaglandin D2 receptor 2 (Homo sapiens, UniProt Q9Y5Y4) (assay: Radioligand Binding Assay and [35S] GTP-gamma-S Binding Assay). Settings: not given.
T1 sequence (Q9Y5Y4 whole entry): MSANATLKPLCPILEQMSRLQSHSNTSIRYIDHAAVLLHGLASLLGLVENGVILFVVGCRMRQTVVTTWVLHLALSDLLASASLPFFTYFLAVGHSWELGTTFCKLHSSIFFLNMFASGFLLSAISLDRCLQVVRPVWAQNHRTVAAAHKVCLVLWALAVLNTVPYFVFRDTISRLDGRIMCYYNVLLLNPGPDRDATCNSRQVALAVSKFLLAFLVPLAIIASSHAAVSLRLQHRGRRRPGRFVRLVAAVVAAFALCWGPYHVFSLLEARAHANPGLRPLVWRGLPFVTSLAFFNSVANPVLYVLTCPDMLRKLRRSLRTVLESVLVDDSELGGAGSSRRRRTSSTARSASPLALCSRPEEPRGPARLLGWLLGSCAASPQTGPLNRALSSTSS
Experimental: (§1) A scintillation proximity assay was used for radioligand competition and saturation binding assays. Nonspecific binding was determined in the presence of 1 uM PGD2. Binding activity was determined by using a 1450 Microbeta scintillation counter (Wallac, UK). Ki values were calculated by using the Cheng-Prusoff equation, and represent the average of at least three independent dose-response experiments. EC50/IC50 values were obtained from GTP-gamma-S binding assay, which measures antagonist activity of compounds in the presence of 80 nM PGD2.

Ki [nM] | SMILES
683 | O=C(O)CN1C(=O)[C@]2(CC(=O)N(Cc3cc(Cl)ccc3F)C2)c2cc(Cl)ccc21 [2-[(3R)-5-chloro-1'-[(5-chloro-2-fluorophenyl)methyl]-1,2-dihydrospiro[indole-3,3'-pyrrolidine]-2,5'-dione]acetic acid]
13 | O=C(O)CN1C(=O)[C@@]2(CC(=O)N(Cc3cc(Cl)ccc3F)C2)c2cc(Cl)ccc21 [2-[(3S)-5-chloro-1'-[(5-chloro-2-fluorophenyl)methyl]-1,2-dihydrospiro[indole-3,3'-pyrrolidine]-2,5'-dione]acetic acid]

Same assay, conditions: pH 7.4; 22 °C

IC50 [nM] | SMILES
122 | O=C(O)CN1C(=O)C2(CC(=O)N(Cc3cccc(Cl)c3)C2=O)c2cc(Cl)ccc21 (configuration not stated) [2-{5-chloro-1'-[(3-chlorophenyl)methyl]-1,2-dihydrospiro[indole-3,3'-pyrrolidine]-2,2',5'-trione}acetic acid]
182 | O=C(O)CN1C(=O)C2(CC(=O)N(Cc3ccc(F)cc3)C2=O)c2cc(Cl)ccc21 (configuration not stated) [2-{5-chloro-1'-[(4-fluorophenyl)methyl]-1,2-dihydrospiro[indole-3,3'-pyrrolidine]-2,2',5'-trione}acetic acid]

Continued, compound first:

SMILES | IC50 [nM]
O=C(O)CN1C(=O)C2(CC(=O)N(Cc3ccccc3)C2=O)c2cc(Cl)ccc21 (configuration not stated) [2-{1'-benzyl-5-chloro-1,2-dihydrospiro[indole-3,3'-pyrrolidine]-2,2',5'-trione}acetic acid] | 418
O=C(O)CN1C(=O)C2(CC(=O)N(Cc3ccccc3F)C2=O)c2cc(Cl)ccc21 (configuration not stated) [2-{5-chloro-1'-[(2-fluorophenyl)methyl]-1,2-dihydrospiro[indole-3,3'-pyrrolidine]-2,2',5'-trione}acetic acid] | 212

These compounds were tested against T2, Prostaglandin D2 receptor 2 (Mus musculus, UniProt Q9Z2J6) in the same assay as above. Settings: not given.
T2 sequence (Q9Z2J6 whole entry): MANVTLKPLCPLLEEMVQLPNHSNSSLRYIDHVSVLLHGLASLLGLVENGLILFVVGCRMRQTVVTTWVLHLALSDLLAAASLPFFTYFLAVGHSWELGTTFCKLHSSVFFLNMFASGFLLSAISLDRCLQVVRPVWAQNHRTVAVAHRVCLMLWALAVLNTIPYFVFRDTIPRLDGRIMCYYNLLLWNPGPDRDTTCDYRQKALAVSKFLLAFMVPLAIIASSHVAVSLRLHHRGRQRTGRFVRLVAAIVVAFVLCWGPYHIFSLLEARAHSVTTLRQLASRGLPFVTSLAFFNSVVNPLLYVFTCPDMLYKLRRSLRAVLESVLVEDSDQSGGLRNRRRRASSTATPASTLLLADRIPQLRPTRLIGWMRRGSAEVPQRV
Experimental: as §1

Ki [nM] | SMILES
88 | O=C(O)CN1C(=O)[C@@]2(CC(=O)N(Cc3cc(Cl)ccc3F)C2)c2cc(Cl)ccc21 [2-[(3S)-5-chloro-1'-[(5-chloro-2-fluorophenyl)methyl]-1,2-dihydrospiro[indole-3,3'-pyrrolidine]-2,5'-dione]acetic acid]

These compounds were tested against T1, Prostaglandin D2 receptor 2 (assay: Radioligand Binding Assay). Settings: not given.

EC50 [nM] | SMILES
23 | Cc1noc(-c2ccccc2)c1CN1C(=O)CC2(C1=O)C(=O)N(CC(=O)O)c1ccc(Cl)cc12 (configuration not stated) [2-{5-chloro-1'-[(3-methyl-5-phenyl-1,2-oxazol-4-yl)methyl]-1,2-dihydrospiro[indole-3,3'-pyrrolidine]-2,2',5'-trione}acetic acid]
19 | Cc1noc(-c2ccccc2)c1CN1CC2(CC1=O)C(=O)N(CC(=O)O)c1ccc(Cl)cc12 (configuration not stated) [2-{5-chloro-1'-[(3-methyl-5-phenyl-1,2-oxazol-4-yl)methyl]-1,2-dihydrospiro[indole-3,3'-pyrrolidine]-2,5'-dione}acetic acid]
48 | O=C(O)CN1C(=O)C2(CC(=O)N(Cc3cc(Cl)ccc3F)C2=O)c2cc(Cl)ccc21 (configuration not stated) [2-{5-chloro-1'-[(5-chloro-2-fluorophenyl)methyl]-1,2-dihydrospiro[indole-3,3'-pyrrolidine]-2,2',5'-trione}acetic acid]
21 | Cc1onc(-c2ccccc2)c1CN1C(=O)CC2(C1=O)C(=O)N(CC(=O)O)c1ccc(Cl)cc12 (configuration not stated) [2-{5-chloro-1'-[(5-methyl-3-phenyl-1,2-oxazol-4-yl)methyl]-1,2-dihydrospiro[indole-3,3'-pyrrolidine]-2,2',5'-trione}acetic acid]

Continued, compound first:

SMILES | EC50 [nM]
O=C(O)CN1C(=O)C2(CC(=O)N(Cc3csc(-c4cccc(Cl)c4)n3)C2=O)c2cc(Cl)ccc21 (configuration not stated) [2-(5-chloro-1'-{[2-(3-chlorophenyl)-1,3-thiazol-4-yl]methyl}-1,2-dihydrospiro[indole-3,3'-pyrrolidine]-2,2',5'-trione)acetic acid] | 48
O=C(O)CN1C(=O)[C@@]2(CC(=O)N(Cc3cccc(Cl)c3)C2=O)c2cc(Cl)ccc21 [2-[(3R)-5-chloro-1'-[(3-chlorophenyl)methyl]-1,2-dihydrospiro[indole-3,3'-pyrrolidine]-2,2',5'-trione]acetic acid] | 107
O=C(O)CN1C(=O)[C@@]2(CC(=O)N(Cc3cc(Cl)ccc3F)C2=O)c2cc(Cl)ccc21 [2-[(3R)-5-chloro-1'-[(5-chloro-2-fluorophenyl)methyl]-1,2-dihydrospiro[indole-3,3'-pyrrolidine]-2,2',5'-trione]acetic acid] | 66
Cc1nc(CN2C(=O)CC3(C2=O)C(=O)N(CC(=O)O)c2ccc(Cl)cc23)cs1 (configuration not stated) [2-{5-chloro-1'-[(2-methyl-1,3-thiazol-4-yl)methyl]-1,2-dihydrospiro[indole-3,3'-pyrrolidine]-2,2',5'-trione}acetic acid] | 236
O=C(O)CN1C(=O)C2(CC(=O)N(Cc3cc(Cl)cc(Cl)c3)C2=O)c2cc(Cl)ccc21 (configuration not stated) [2-{5-chloro-1'-[(3,5-dichlorophenyl)methyl]-1,2-dihydrospiro[indole-3,3'-pyrrolidine]-2,2',5'-trione}acetic acid] | 82
Cc1noc(C)c1CN1C(=O)CC2(C1=O)C(=O)N(CC(=O)O)c1ccc(Cl)cc12 (configuration not stated) [2-{5-chloro-1'-[(3,5-dimethyl-1,2-oxazol-4-yl)methyl]-1,2-dihydrospiro[indole-3,3'-pyrrolidine]-2,2',5'-trione}acetic acid] | 220
